Source: ChEMBL document CHEMBL1201862, “PubChem BioAssay data set” (2004)
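Interpolation was linear, between the two tested concentrations surrounding the appropriate level; five concentrations were tested over 48 hours in 96-well plates. GI50 is the concentration that inhibits growth by half.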 The source made the active and inactive calls. Rule as the data show it: active = GI50 up to about 1.1 µM and inactive = higher.

Key:
Assay in all cases: NCI tumour cell line growth inhibition, 48 h
786-0 = tested on: 786-0
A549 = tested on: A549
ACHN = tested on: ACHN
CAKI-1 = tested on: CAKI-1
DLD-1 = tested on: DLD-1
DMS-273 = tested on: DMS-273
EKVX = tested on: EKVX
HCC 2998 = tested on: HCC 2998
HCT-116 = tested on: HCT-116
HCT-15 = tested on: HCT-15
HOP-62 = tested on: HOP-62
HOP-92 = tested on: HOP-92
HT-29 = tested on: HT-29
IGROV-1 = tested on: IGROV-1
KM-20L2 = tested on: KM-20L2
KM12 = tested on: KM12
LOX IMVI = tested on: LOX IMVI
LXFL 529 = tested on: LXFL 529
M14 = tested on: M14
M19-MEL = tested on: M19-MEL
NCI-H23 = tested on: NCI-H23
NCI-H460 = tested on: NCI-H460
NCI-H522 = tested on: NCI-H522
OVCAR-3 = tested on: OVCAR-3
OVCAR-4 = tested on: OVCAR-4
OVCAR-8 = tested on: OVCAR-8
SF-268 = tested on: SF-268
SF-295 = tested on: SF-295
SF-539 = tested on: SF-539
SK-MEL-28 = tested on: SK-MEL-28
SK-MEL-2 = tested on: SK-MEL-2
SK-MEL-5 = tested on: SK-MEL-5
SN12C = tested on: SN12C
SNB-19 = tested on: SNB-19
SNB-78 = tested on: SNB-78
SW-620 = tested on: SW-620
TK-10 = tested on: TK-10
U-251 = tested on: U-251
UACC-257 = tested on: UACC-257
UACC-62 = tested on: UACC-62
UO-31 = tested on: UO-31

Cc1ccc(C(=O)NC2CCCCC2)cc1/N=N/N(C)C
GI50 (786-0): > 100 µM (inactive) | GI50 (A549): > 100 µM (inactive) | GI50 (ACHN): > 100 µM (inactive) | GI50 (CAKI-1): > 100 µM (inactive) | GI50 (DLD-1): > 100 µM (inactive) | GI50 (DMS-273): > 100 µM (inactive) | GI50 (EKVX): > 100 µM (inactive) | GI50 (HCC 2998): > 100 µM (inactive) | GI50 (HCT-116): > 100 µM (inactive) | GI50 (HCT-15): > 100 µM | GI50 (HOP-62): > 100 µM (inactive) | GI50 (HOP-92): > 100 µM (inactive) | GI50 (HT-29): > 100 µM (inactive) | GI50 (IGROV-1): > 100 µM (inactive) | GI50 (KM-20L2): > 100 µM (inactive) | GI50 (KM12): > 100 µM (inactive) | GI50 (LOX IMVI): > 100 µM (inactive) | GI50 (LXFL 529): > 100 µM (inactive) | GI50 (M14): > 100 µM (inactive) | GI50 (M19-MEL): > 100 µM (inactive) | GI50 (NCI-H23): > 100 µM (inactive) | GI50 (NCI-H460): > 100 µM (inactive) | GI50 (NCI-H522): 74 µM (inactive) | GI50 (OVCAR-3): > 100 µM (inactive) | GI50 (OVCAR-4): > 100 µM (inactive) | GI50 (OVCAR-8): > 100 µM (inactive) | GI50 (SF-268): 44.9 µM (inactive) | GI50 (SF-295): > 100 µM (inactive) | GI50 (SF-539): > 100 µM (inactive) | GI50 (SK-MEL-28): > 100 µM (inactive) | GI50 (SK-MEL-2): > 100 µM (inactive) | GI50 (SK-MEL-5): > 100 µM (inactive) | GI50 (SN12C): > 100 µM (inactive) | GI50 (SNB-19): > 100 µM (inactive) | GI50 (SNB-78): > 100 µM (inactive) | GI50 (SW-620): > 100 µM (inactive) | GI50 (TK-10): > 100 µM (inactive) | GI50 (U-251): > 100 µM (inactive) | GI50 (UACC-257): > 100 µM (inactive) | GI50 (UACC-62): > 100 µM (inactive) | GI50 (UO-31): > 100 µM (inactive)
